Reference: PMC10254852, “Design, Synthesis and Anticancer Evaluation of Nitroimidazole Radiosensitisers” (Molecules, 2023)
Like-named read-outs stand apart in the source and are kept apart here.

Tests used:
HCT116/54C cells [1] = assay: In vitro cytotoxicity, 4 h exposure oxic/anoxic, 5-day regrowth, sulforhodamine B; type: cell-based, human; settings: HCT116/54C; for HCR: IC50(oxic)/IC50(anoxic); for IC50: Homo sapiens
From the text: (§1) This allowed derivation of hypoxia cytotoxicity ratios (HCR) as IC50(oxic)/IC50(anoxic) in an HCT116 subclone HCT116/54C and two HNSCC cell lines, FaDu and UT-SCC-74B (Table 2).
(§2) HCT116/54C is an HCT116 subline that originated from a mixed culture with UT-SCC-54C cells, which was supplied alongside UT-SCC-74B by Prof. Bradly Wouters (University Health Network, Toronto, ON, Canada). HCT116/54C and UT-SCC-74B cells were passaged in minimum essential media (MEM, ThermoFisher Scientific, Waltham, MA, USA) with 10% foetal calf serum (FCS, Moregate Biotech, Hamilton, New Zealand), 4.5 mg/mL D-glucose (Sigma-Aldrich, St. Louis, MO, USA) and 20 mM HEPES (Sigma-Aldrich). FaDu cells were sourced from American Type Culture Collection and cultured in αMEM (ThermoFisher Scientific) with 10% FCS. All cell lines were confirmed mycoplasma-free by PlasmoTest (InvivoGen, San Diego, CA, USA) and were derived from STR-authenticated cryopreserved stocks. Log-phase cells were seeded into 96-well plates at 800 cells/well for HCT116/54C and 1500 cells/well for FaDu. […] After drug washout, cells were grown and stained as for the oxic IC50 assays. The hypoxic cytotoxicity ratio HCR was determined as HCR = IC50(oxic)/IC50(anoxic).

FaDu cells = assay: as above; type: cell-based; settings: for IC50: Homo sapiens; for HCR: IC50(oxic)/IC50(anoxic)
From the text: as §1, §2

[2] = design: method as in PMID 29253343; settings: NIH-III mice, 2.2 mmol/kg i.v., cited from earlier work; for Cmax: read-out: Plasma Cmax
HCT116/54C tumours = assay: Tumour radiosensitisation: ex vivo clonogenic assay; type: in vivo, NIH-III mice; settings: for Sensitisation Ratio: 2.2 mmol/kg i.v. 5 min prior to 10 Gy radiation, surviving fraction after radiation/surviving fraction after drug + radiation; for enhancement of tumour killing of radiotherapy (RAD vs drug + RAD): 2.2 mmol/kg i.v. + 10 Gy, one-way ANOVA
Protocol: Specific pathogen-free six- to eight-week-old female NIH-III mice, bred in the Vernon Jansen Unit, University of Auckland, were used for animal experiments. Animals had ad libitum access to food and water and were maintained in microisolator cages on a 12 h light/dark cycle. All treatments were administered by i.v. injection at a dose of 2.2 mmol/kg and injection volume of 10 mL/kg. Compounds 2, 34 and 38 were administered as solutions in saline containing 1% DMSO or for 9–12 as solutions in saline containing 2 molar equivalents of NaHCO3. Control animals received an i.v. injection of saline at 10 mL/kg. All animal experiments were conducted under the auspices of the University of Auckland Animal Ethics Committee (approval 1781).
Compounds were evaluated for in vivo radiosensitisation of hypoxic cells in HCT116/54C and UT-SCC-74B human tumour xenografts using clonogenic survival as an endpoint, using previously report methods. Tumours were grown subcutaneously on the flanks of NIH-III mice by injecting 5 × 10^6 HCT116/54C cells or UT-SCC-74B cells. Once tumours reached a volume of approximately 250 mm^3, mice were randomly assigned to 4 treatment groups and treated with: (A) vehicle control, (B) 10 Gy RAD only, (C) sensitiser only, or (D) sensitiser given before 10 Gy RAD. Drugs were administered as a single i.v. dose at 2.2 mmol/kg. […] Tumours were excised 18 h after treatment, and tumour cells were dissociated enzymatically and plated to determine the number of surviving (clonogenic) cells per gram of tumour tissue. SF and SR were calculated as described above. Statistical significance of drug effects was tested using one-way ANOVA with Sidak tests for multiple comparisons vs. radiation alone (Table 5).

UT-SCC-74B cells = assay: In vitro cytotoxicity, 4 h exposure oxic/anoxic, 5-day regrowth, sulforhodamine B; type: cell-based, human; settings: for IC50: Homo sapiens; for HCR: IC50(oxic)/IC50(anoxic)
From the text: as §1, §2

HCT116/54C cells [3] = assay: In vitro radiosensitisation under anoxia, clonogenic survival; type: cell-based, human; settings: compound 1 mM, radiation dose for 1% survival/radiation dose for 1% survival with compound, mean ± SEM
Protocol: Next, we evaluated in vitro radiosensitisation by using a representative subset of nitroimidazole compounds in HCT116/54C cells with a clonogenic survival endpoint. Radiosensitisation was determined by treating cells under anoxia with a range of radiation doses alone and with compounds at equimolar doses (1 mM). Sensitiser enhancement ratios (SER) were calculated as the ratio of radiation dose required for 1% clonogenic survival alone or with compound (Table 3).
Cells were seeded onto 96-well plates at 10^5 cells per well and allowed to attach for 2 h. […] The plates were irradiated (Eldorado 78 ^60Co teletherapy unit, ~2 Gy/min) with 15 Gy under anoxia at room temperature for SR experiments. A metal wedge placed on the top of the metal chamber was used to achieve a graduated radiation dose across the plate, varying from 7 to 29 Gy, calibrated by Fricke dosimetry with ammonium thiocyanate as previously described for SER experiments. The control plate (compound alone, no radiation) was left inside the anaerobic chamber at room temperature during the irradiation period. After treatment, the cells were trypsinized and suspended in usual media + 1% penicillin-streptomycin (ThermoFisher Scientific), and 10-fold serial dilutions were plated for clonogenic survival. After 10 days, plates were stained with methylene blue (2 g/L in EtOH/H2O, 1:1 v/v) and colonies with more than 50 cells were counted. The surviving fraction (SF) was determined as: SF = PE(irradiated)/PE(control) where the plating efficiency (PE) = (No. of colonies)/(No. of cells plated). SF was plotted against radiation dose. Survival ratios (SR) were calculated: SR = (cell survival with radiation)/(cell survival with drug + radiation). Sensitizer enhancement ratios (SER) were calculated: SER = (radiation dose for 1% survival without compound)/(radiation dose for 1% survival with compound).

[4] = anoxic, 4 h exposure, mean ± SEM, n = 3–4, read-out: IC50 Anoxic
[5] = oxic, 4 h exposure, mean ± SEM, n = 3–4, read-out: IC50 Oxic

| Structure (SMILES) | HCR (HCT116/54C cells [1]) | IC50 (HCT116/54C cells [1]; [4]) [mM] | IC50 (HCT116/54C cells [1]; [5]) [mM] | IC50 (FaDu cells; [4]) [mM] | IC50 (FaDu cells; [5]) [mM] | HCR (FaDu cells) | IC50 (UT-SCC-74B cells; [4]) [mM] | IC50 (UT-SCC-74B cells; [5]) [mM] | HCR (UT-SCC-74B cells) | SER at 1 mM (HCT116/54C cells [3]) | also measured |
| --- | --- | --- | --- | --- | --- | --- | --- | --- | --- | --- | --- |
| COCCNS(=O)(=O)CCn1ccnc1[N+](=O)[O-] [Compound 35] | >16 | 0.97 ± 0.16 | > 16 | 0.81 ± 0.12 | 16.5 ± 1.6 | 20.4 | – | – | – | – | – |
| Cc1ncc([N+](=O)[O-])n1CCS(=O)(=O)NCCN1CCCCC1 [Compound 45] | 5.0 | 2.4 ± 0.4 | 11.8 ± 1.5 | 1.7 ± 0.4 | 4.8 ± 0.3 | 2.8 | – | – | – | – | – |
| O=[N+]([O-])c1nccn1CCS(=O)(=O)NCCOP(=O)(O)O [Compound 10] | – | – | – | – | – | – | – | – | – | – | AUC [2]: 640 µM·h; T1/2 [2]: 2.21 h; Cmax [2]: 1140 µM; Sensitisation Ratio (HCT116/54C tumours): 1.78; enhancement of tumour killing of radiotherapy (RAD vs drug + RAD) (HCT116/54C tumours): not |
| O=[N+]([O-])c1nccn1CCS(=O)(=O)NCCO [Compound 6] | >7.3 | 2.2 ± 0.04 | > 16 | 1.2 ± 0.2 | 17.8 ± 2.2 | 14.9 | 3 ± 0.6 | > 20 | >6.6 | 1.39 ± 0.01 | – |
| O=[N+]([O-])c1nccn1CCS(=O)(=O)NCCN1CCOCC1 [Compound 36] | 12.9 | 0.71 ± 0.13 | 9.2 ± 1.1 | 0.69 ± 0.04 | 7.3 ± 0.6 | 10.6 | 1.6 ± 0.3 | 11.9 ± 1.5 | 7.6 | 1.57 ± 0.00 | – |
| COCC(O)Cn1ccnc1[N+](=O)[O-] (stereo not drawn) [Compound 1, misonidazole, reference compound] | >16.8 | – | – | – | – | >15.4 | – | – | >11.9 | 1.46 ± 0.01 | IC50 (HCT116/54C cells [1]; 4 h, read-out: IC50 Anoxic): 1.5 ± 0.3 mM; IC50 (HCT116/54C cells [1]; 4 h, read-out: IC50 Oxic): > 25 mM; IC50 (HCT116/54C cells [1]; read-out: hypoxic IC50): 0.5 mM; IC50 (UT-SCC-74B cells; 4 h, read-out: IC50 Anoxic): 2.1 ± 0.6 mM; IC50 (UT-SCC-74B cells; 4 h, read-out: IC50 Oxic): > 25 mM; IC50 (FaDu cells; 4 h, read-out: IC50 Anoxic): 1.3 ± 0.2 mM; IC50 (FaDu cells; 4 h, read-out: IC50 Oxic): > 20 mM |
| O=[N+]([O-])c1cncn1CS(=O)(=O)NCCOP(=O)(O)O [Compound 11] | – | – | – | – | – | – | – | – | – | – | AUC [2]: 710 µM·h; T1/2 [2]: 1.72 h; Cmax [2]: 1100 µM; Sensitisation Ratio (HCT116/54C tumours): 1.85; enhancement of tumour killing of radiotherapy (RAD vs drug + RAD) (HCT116/54C tumours): not |
| Cc1ncc([N+](=O)[O-])n1CCS(=O)(=O)N1CCC(N(C)C)CC1 [Compound 46] | 8.6 | 2 ± 0.3 | 16.9 ± 1.4 | 1.3 ± 0.1 | 9.5 ± 2 | 7.3 | 1.9 ± 0.2 | 8.1 ± 0.9 | 4.4 | – | – |
| Cc1ncc([N+](=O)[O-])n1CCS(=O)(=O)NCCO [Compound 41] | >1.1 | 15.5 ± 2.6 | > 18 | > 22 | > 25 | – | 13.7 ± 3.7 | > 21 | >1.5 | 1.16 ± 0.01 | – |
| COCCNS(=O)(=O)Cn1cncc1[N+](=O)[O-] [Compound 37] | 2.9 | 4 ± 0.7 | 11.4 ± 1 | 2.1 ± 0.04 | 12 ± 1.9 | 5.7 | – | – | – | – | – |
| Cc1ncc([N+](=O)[O-])n1CCS(=O)(=O)NCCN1CCOCC1 [Compound 42] | 1.8 | 4.3 ± 0.2 | 7.6 ± 0.4 | 7.8 ± 0.2 | 9.8 ± 1.2 | 1.3 | 6.6 ± 0.6 | 8.9 ± 1.6 | 1.4 | 1.16 ± 0.01 | – |
| O=[N+]([O-])c1cncn1CCS(=O)(=O)NCCOP(=O)(O)O [Compound 12] | – | – | – | – | – | – | – | – | – | – | Sensitisation Ratio (HCT116/54C tumours): 3.32; enhancement of tumour killing of radiotherapy (RAD vs drug + RAD) (HCT116/54C tumours): significantly enhanced the tumour killing of radiotherapy |
| COCCNS(=O)(=O)Cn1ccnc1[N+](=O)[O-] [Compound 33] | >51 | 0.12 ± 0.002 | > 6.2 | 0.09 ± 0.01 | 4 ± 1.2 | 46.6 | 0.19 ± 0.02 | 3.7 ± 0.8 | 19.9 | – | – |
| Cc1ncc([N+](=O)[O-])n1CCS(=O)(=O)N1CCN(C)CC1 [Compound 43] | 1.2 | 9.9 ± 0.3 | 11.7 ± 1.3 | 8.6 ± 0.6 | 13.3 ± 2.5 | 1.6 | – | – | – | – | – |
| Cc1ncc([N+](=O)[O-])n1CCS(=O)(=O)NCCCN1CCOCC1 [Compound 44] | >2.0 | 10.3 ± 1.5 | > 21 | 7.8 ± 0.7 | > 16 | >2.0 | 7.1 ± 1.5 | 13.2 ± 2 | 1.9 | – | – |
| COCCNS(=O)(=O)CCn1c([N+](=O)[O-])cnc1C [Compound 40] | >1.8 | 11 ± 0.4 | > 20 | 8 ± 0.5 | > 22 | >2.7 | – | – | – | – | – |
| O=[N+]([O-])c1cncn1CCS(=O)(=O)NCCO [Compound 8] | >2.4 | 9 ± 0.9 | > 22 | 6.6 ± 0.6 | > 24 | >3.6 | 10.9 ± 1.3 | > 22 | >2.0 | 1.27 ± 0.00 | – |
| COCCNS(=O)(=O)CCn1cncc1[N+](=O)[O-] [Compound 39] | >1.9 | 13 ± 1.3 | > 25 | 7.2 ± 0.2 | > 19 | >2.6 | – | – | – | – | – |
| O=[N+]([O-])c1cncn1CCN1CCOCC1 [Compound 3, nimorazole, reference compound] | – | > 20 | > 25 | 13.2 ± 3.4 | > 20 | >1.5 | – | – | – | 1.20 ± 0.01 | – |
